Results published in patent EP0298350A2, “Chiral 6-hydroxymethyl-3-amino-4,5-dihydroxy piperidines, their intermediates, processes for their preparation and their use” (BAYER AG, priority 1987, dated 1989).

Key:
[1] = test system: UDP-gal NAc: polypeptid-α-N-acetylgalaktosaminyl-transferase; experiment: Inhibition of polypeptide α-N-acetylgalactosaminyl transferase activity; assay type: biochemical; details: qualitative statement, no value given
[2] = biological target: α-N-Acetyl-galaktosaminidase; experiment: Inhibition of α-N-acetylgalactosaminidase; assay type: biochemical; details: α-N-Acetyl-galaktosaminidase aus Charonia lampas; read-out: IC₅₀
Glykoproteinen = experiment: Effect on half-life of glycoproteins; details: qualitative statement, no value given
Glukosidasen = details: known from Angew. Chem. 93, 738 (1981); cited from earlier work

Structure (SMILES)	Aktivität der UDP-gal NAc: polypeptid-α-N-acetylgalaktosaminyl-transferase [1]	IC50 [2]	Halbwertszeit von Glykoproteinen (Glykoproteinen)	Hemmwirkung auf Glukosidasen (Glukosidasen)
CC(=O)N[C@H]1CN[C@H](CO)[C@H](O)[C@@H]1O [If, 2-N-Acetyl-1,2,5-tridesoxy-1,5-imino-D-galaktit]	inhibiert	1400 nM	erhöht	–
OC[C@H]1NC[C@H](O)[C@@H](O)[C@@H]1O [1-Desoxynojirimycin]	–	–	–	Hemmwirkung
